*1 amine or outer side, *2 acyl side, *3 side chain or, on linkers, in order; H or OH if unused. Where a SMILES comes first, the peptide text is derived from it. Bridges are numbered along the chain shown (N, C = ends). [ ]: non-standard residue; d: D form. Trp(1-CH2CO) = O=C([C@H](Cc1cn(CC(=O)[*:3])c2ccccc12)N[*:1])[*:2]; X25 = O=C([C@H](CNCc1cc(F)c(B(O)O[*:3])c(F)c1)N[*:1])[*:2]; X21 = Cc1ccc(B(O)O[*:3])c(CNC[C@H](N[*:1])C(=O)[*:2])c1; X24 = O=C([C@H](CNCc1ccc(B(O)O[*:3])c(F)c1)N[*:1])[*:2]; X5 = O=C([C@H](CNCc1ccc(Cl)c(B(O)O[*:3])c1)N[*:1])[*:2]; X15 = COc1cccc(B(O)O[*:3])c1CNC[C@H](N[*:1])C(=O)[*:2]; X31 = O=C([C@H](CNCc1ccc(Cl)cc1B(O)O[*:3])N[*:1])[*:2]; X19 = O=C([C@H](CNCc1cccc(B(O)O[*:3])c1F)N[*:1])[*:2]; X4 = O=C([C@H](CNCc1cc(Cl)ccc1B(O)O[*:3])N[*:1])[*:2]; X8 = O=C([C@H](CNCc1ccc(B(O)O[*:3])cc1Cl)N[*:1])[*:2]; X6 = O=C([C@H](CNCc1cccc(B(O)O[*:3])c1)N[*:1])[*:2]; X20 = O=C([C@H](CCNCc1cccc(B(O)O)c1F)N[*:1])[*:2]; Hyp = O=C(O)[C@@H]1C[C@@H](O)CN1; NMeNle = CCCC[C@H](NC)C(=O)O; NMeA = CN[C@@H](C)C(=O)O; Dab = NCC[C@H](N)C(=O)O

The experiment deals with PD-1/PD-L1 (Homo sapiens (Human), UniProt Q9NZQ7). Briefly: PD-1/PD-L1 Homogenous Time-Resolved Fluorescence (HTRF) binding assay. To be noted: PD-L1-His 10 nM, PD-1-Ig 20 nM; read-out: HTRF IC50. An excerpt: Methods for Testing the Ability of Macrocyclic Peptides to Compete for the Binding of PD-1 to PD-L1 Using Homogenous Time-Resolved Fluorescence (HTRF) Binding Assays
The ability of the compounds of formula (I) to bind to PD-L1 was investigated using a PD-1/PD-L1 Homogenous Time-Resolved Fluorescence (HTRF) binding assay.
Homogenous Time-Resolved Fluorescence (HTRF) Binding Assay
The interaction of PD-1 and PD-L1 can be assessed using soluble, purified preparations of the extracellular domains of the two proteins. The PD-1 and PD-L1 protein extracellular domains were expressed as fusion proteins with detection tags, for PD-1, the tag was the Fc portion of Immunoglobulin (PD-1-Ig) and for PD-L1 it was the 6 histidine motif (PD-L1-His). All binding studies were performed in an HTRF assay buffer consisting of dPBS supplemented with 0.1% […] bovine serum albumin and 0.05% (v/v) Tween-20. For the h/PD-L1-His binding assay, inhibitors were pre-incubated with PD-L1-His (10 nM final) for 15 m in 4 μl of assay buffer, followed by addition of PD-1-Ig (20 nM final) in 1 μl of assay buffer and further incubation for 15 m. HTRF detection was achieved using europium cryptate-labeled anti-Ig (1 nM final) and allophycocyanin (APC) labeled anti-His (20 nM final). Antibodies were diluted in HTRF detection buffer and 5 μl was dispensed on top of the binding reaction. The reaction mixture was allowed to equilibrate for 30 minutes and the resulting signal (665 nm/620 nm ratio) was obtained using an EnVision fluorometer. Additional binding assays were established between the human proteins PD-1-Ig/PD-L2-His (20 & 5 nM, respectively) and CD80-His/PD-L1-Ig (100 & 10 nM, respectively).
Recombinant Proteins: Human PD-1 (25-167) with a C-terminal human Fc domain of immunoglobulin G (Ig) epitope tag [hPD-1 (25-167)-3S-IG] and human PD-L1 (18-239) with a C-terminal His epitope tag [hPD-L1(18-239)-TVMV-His] were expressed in HEK293T cells and purified sequentially by ProteinA affinity chromatography and size exclusion chromatography. Human PD-L2-His and CD80-His was obtained through commercial sources.
Table 1 lists the IC50 values for representative examples of this disclosure measured in the PD-1/PD-L1 Homogenous Time-Resolved Fluorescence (HTRF) binding assay.
(In TR-FRET formats the signal depends on donor and acceptor labels being close together.)

PD-1/PD-L1, sequence (Q9NZQ7 18-239): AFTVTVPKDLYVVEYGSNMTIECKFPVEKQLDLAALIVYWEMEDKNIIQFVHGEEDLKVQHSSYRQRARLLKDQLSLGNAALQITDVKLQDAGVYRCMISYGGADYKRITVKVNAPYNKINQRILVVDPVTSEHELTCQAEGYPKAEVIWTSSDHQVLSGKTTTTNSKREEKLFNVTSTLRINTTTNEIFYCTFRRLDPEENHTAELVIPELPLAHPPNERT

What is called IC50 is the concentration that gives 50% inhibition. As for `CCCC[C@H]1C(=O)N(C)[C@@H](CCCC)C(=O)N[C@@H](CC(C)C)C(=O)N[C@H](C(=O)NCC(N)=O)CSCC(=O)N[C@@H](Cc2ccc(O)cc2)C(=O)N(C)[C@@H](C)C(=O)N[C@@H](CC(N)=O)C(=O)N2CCC[C@H]2C(=O)N[C@H]2CNCc3ccc(Cl)cc3B(O)OC(=O)Cn3cc(c4ccccc43)C[C@H](NC(=O)[C@H](CCN)NC(=O)[C@H](Cc3c[nH]c4ccccc34)NC(=O)[C@@H]3C[C@@H](O)CN3C(=O)[C@H](CC(C)C)NC2=O)C(=O)N1C` [Example 1018] ({CH2CO}-Y[NMeA]NP[X31]L[Hyp]W[Dab][Trp(1-CH2CO)][NMeNle][NMeNle]LCG-NH2; ester 5-10; thioether N-14), the IC50 amounted to 4.9 nM. Consider `CCCC[C@H]1C(=O)N(C)[C@@H](CCCC)C(=O)N[C@@H](CC(C)C)C(=O)N[C@H](C(=O)NCC(N)=O)CSCC(=O)N[C@@H](Cc2ccc(O)cc2)C(=O)N(C)[C@@H](C)C(=O)N[C@@H](CC(N)=O)C(=O)N2CCC[C@H]2C(=O)N[C@H]2CNCc3ccc(Cl)c(c3)B(O)OC(=O)Cn3cc(c4ccccc43)C[C@H](NC(=O)[C@H](CCN)NC(=O)[C@H](Cc3c[nH]c4ccccc34)NC(=O)[C@@H]3C[C@@H](O)CN3C(=O)[C@H](CC(C)C)NC2=O)C(=O)N1C` [Example 1011] ({CH2CO}-Y[NMeA]NP[X5]L[Hyp]W[Dab][Trp(1-CH2CO)][NMeNle][NMeNle]LCG-NH2; ester 5-10; thioether N-14), for which the IC50 was determined as 6.4 nM.

In the case of `CCCC[C@H]1C(=O)N(C)[C@@H](CCCC)C(=O)N[C@@H](CC(C)C)C(=O)N[C@H](C(=O)NCC(N)=O)CSCC(=O)N[C@H]2Cc3ccc(cc3)OB(O)c3ccc(c(C(F)(F)F)c3)CNCC[C@@H]3NC(=O)[C@H](Cc4c[nH]c5ccccc45)NC(=O)[C@@H]4C[C@@H](O)CN4C(=O)[C@H](CC(C)C)NC(=O)[C@H](CNCc4ccc(cc4C(F)(F)F)B(O)OC(=O)Cn4cc(c5ccccc54)C[C@H](NC3=O)C(=O)N1C)NC(=O)[C@@H]1CCCN1C(=O)[C@H](CC(N)=O)NC(=O)[C@H](C)N(C)C2=O` [Example 1030], the IC50 was 11 nM. `CCCC[C@H]1C(=O)N(C)[C@@H](CCCC)C(=O)N[C@@H](CC(C)C)C(=O)N[C@H](C(=O)NCC(N)=O)CSCC(=O)N[C@@H](Cc2ccc(O)cc2)C(=O)N(C)[C@@H](C)C(=O)N[C@@H](CC(N)=O)C(=O)N2CCC[C@H]2C(=O)N[C@H]2CNCc3ccc(cc3Cl)B(O)OC(=O)Cn3cc(c4ccccc43)C[C@H](NC(=O)[C@H](CCN)NC(=O)[C@H](Cc3c[nH]c4ccccc34)NC(=O)[C@@H]3C[C@@H](O)CN3C(=O)[C@H](CC(C)C)NC2=O)C(=O)N1C` [Example 1020] ({CH2CO}-Y[NMeA]NP[X8]L[Hyp]W[Dab][Trp(1-CH2CO)][NMeNle][NMeNle]LCG-NH2; ester 5-10; thioether N-14): the IC50 was 14 nM. On to `CCCC[C@H]1C(=O)N(C)[C@@H](CCCC)C(=O)N[C@@H](CC(C)C)C(=O)N[C@H](C(=O)NCC(N)=O)CSCC(=O)N[C@@H](Cc2ccc(O)cc2)C(=O)N(C)[C@@H](C)C(=O)N[C@@H](CC(N)=O)C(=O)N2CCC[C@H]2C(=O)N[C@H]2CNCc3cccc(c3)B(O)OC(=O)Cn3cc(c4ccccc43)C[C@H](NC(=O)[C@H](CCN)NC(=O)[C@H](Cc3c[nH]c4ccccc34)NC(=O)[C@@H]3C[C@@H](O)CN3C(=O)[C@H](CC(C)C)NC2=O)C(=O)N1C` [Example 1001] ({CH2CO}-Y[NMeA]NP[X6]L[Hyp]W[Dab][Trp(1-CH2CO)][NMeNle][NMeNle]LCG-NH2; ester 5-10; thioether N-14), for which the IC50 was found to be 3.8 nM.

For the molecule `CCCC[C@H]1C(=O)N(C)[C@@H](CCCC)C(=O)N[C@@H](CC(C)C)C(=O)N[C@H](C(=O)NCC(N)=O)CSCC(=O)N[C@@H](Cc2ccc(O)cc2)C(=O)N(C)[C@@H](C)C(=O)N[C@@H](CC(N)=O)C(=O)N2CCC[C@H]2C(=O)N[C@H]2CNCc3c(OC)cccc3B(O)OC(=O)Cn3cc(c4ccccc43)C[C@H](NC(=O)[C@H](CCN)NC(=O)[C@H](Cc3c[nH]c4ccccc34)NC(=O)[C@@H]3C[C@@H](O)CN3C(=O)[C@H](CC(C)C)NC2=O)C(=O)N1C` [Example 1012] ({CH2CO}-Y[NMeA]NP[X15]L[Hyp]W[Dab][Trp(1-CH2CO)][NMeNle][NMeNle]LCG-NH2; ester 5-10; thioether N-14), the IC50 came to 3 nM. On to `CCCC[C@H]1C(=O)N(C)[C@@H](CCCC)C(=O)N[C@@H](CC(C)C)C(=O)N[C@H](C(=O)NCC(N)=O)CSCC(=O)N[C@@H](Cc2ccc(O)cc2)C(=O)N(C)[C@@H](C)C(=O)N[C@@H](CC(N)=O)C(=O)N2CCC[C@H]2C(=O)N[C@H]2CNCc3cc(C)ccc3B(O)OC(=O)Cn3cc(c4ccccc43)C[C@H](NC(=O)[C@H](CCN)NC(=O)[C@H](Cc3c[nH]c4ccccc34)NC(=O)[C@@H]3C[C@@H](O)CN3C(=O)[C@H](CC(C)C)NC2=O)C(=O)N1C` [Example 1016] ({CH2CO}-Y[NMeA]NP[X21]L[Hyp]W[Dab][Trp(1-CH2CO)][NMeNle][NMeNle]LCG-NH2; ester 5-10; thioether N-14), for which the IC50 was 8.3 nM. For the molecule `CCCC[C@H]1C(=O)N(C)[C@@H](CCCC)C(=O)N[C@@H](CC(C)C)C(=O)N[C@H](C(=O)NCC(N)=O)CSCC(=O)N[C@@H](Cc2ccc(O)cc2)C(=O)N(C)[C@@H](C)C(=O)N[C@@H](CC(N)=O)C(=O)N2CCC[C@H]2C(=O)N[C@H]2CNCc3cc(Cl)ccc3B(O)OC(=O)Cn3cc(c4ccccc43)C[C@H](NC(=O)[C@H](CCN)NC(=O)[C@H](Cc3c[nH]c4ccccc34)NC(=O)[C@@H]3C[C@@H](O)CN3C(=O)[C@H](CC(C)C)NC2=O)C(=O)N1C` [Example 1008] ({CH2CO}-Y[NMeA]NP[X4]L[Hyp]W[Dab][Trp(1-CH2CO)][NMeNle][NMeNle]LCG-NH2; ester 5-10; thioether N-14), the half-maximal inhibitory concentration (IC50) turned out to be 6.7 nM. As to `CCCC[C@H]1C(=O)N(C)[C@@H](CCCC)C(=O)N[C@@H](CC(C)C)C(=O)N[C@H](C(=O)NCC(N)=O)CSCC(=O)N[C@@H](Cc2ccc(O)cc2)C(=O)N(C)[C@@H](C)C(=O)N[C@@H](CC(N)=O)C(=O)N2CCC[C@H]2C(=O)N[C@H]2CNCc3ccc(c(F)c3)B(O)OC(=O)Cn3cc(c4ccccc43)C[C@H](NC(=O)[C@H](CCN)NC(=O)[C@H](Cc3c[nH]c4ccccc34)NC(=O)[C@@H]3C[C@@H](O)CN3C(=O)[C@H](CC(C)C)NC2=O)C(=O)N1C` [Example 1009] ({CH2CO}-Y[NMeA]NP[X24]L[Hyp]W[Dab][Trp(1-CH2CO)][NMeNle][NMeNle]LCG-NH2; ester 5-10; thioether N-14), the IC50 is 2.6 nM. As for `CCCC[C@H]1C(=O)N(C)[C@@H](CCCC)C(=O)N[C@@H](CC(C)C)C(=O)N[C@H](C(=O)NCC(N)=O)CSCC(=O)N[C@@H](Cc2ccc(O)cc2)C(=O)N(C)[C@@H](C)C(=O)N[C@@H](CC(N)=O)C(=O)N2CCC[C@H]2C(=O)N[C@H]2CNCc3cccc(c3F)B(O)OC(=O)Cn3cc(c4ccccc43)C[C@H](NC(=O)[C@H](CCNCc3cccc(B(O)O)c3F)NC(=O)[C@H](Cc3c[nH]c4ccccc34)NC(=O)[C@@H]3C[C@@H](O)CN3C(=O)[C@H](CC(C)C)NC2=O)C(=O)N1C` [Example 1022] ({CH2CO}-Y[NMeA]NP[X19]L[Hyp]W[X20][Trp(1-CH2CO)][NMeNle][NMeNle]LCG-NH2; ester 5-10; thioether N-14), the IC50 stood at 5 nM. The result for `CCCC[C@H]1C(=O)N(C)[C@@H](CCCC)C(=O)N[C@@H](CC(C)C)C(=O)N[C@H](C(=O)NCC(N)=O)CSCC(=O)N[C@@H](Cc2ccc(O)cc2)C(=O)N(C)[C@@H](C)C(=O)N[C@@H](CC(N)=O)C(=O)N2CCC[C@H]2C(=O)N[C@H]2CNCc3cc(F)c(c(F)c3)B(O)OC(=O)Cn3cc(c4ccccc43)C[C@H](NC(=O)[C@H](CCN)NC(=O)[C@H](Cc3c[nH]c4ccccc34)NC(=O)[C@@H]3C[C@@H](O)CN3C(=O)[C@H](CC(C)C)NC2=O)C(=O)N1C` [Example 1007] ({CH2CO}-Y[NMeA]NP[X25]L[Hyp]W[Dab][Trp(1-CH2CO)][NMeNle][NMeNle]LCG-NH2; ester 5-10; thioether N-14) reads 9.9 nM; that for `CCCC[C@H]1C(=O)N(C)[C@@H](CCCC)C(=O)N[C@@H](CC(C)C)C(=O)N[C@H](C(=O)NCC(N)=O)CSCC(=O)N[C@@H](Cc2ccc(O)cc2)C(=O)N(C)[C@@H](C)C(=O)N[C@@H](CC(N)=O)C(=O)N2CCC[C@H]2C(=O)N[C@H]2CNCc3ccc(cc3)B3OB(O3)c3ccc(cc3)CNCC[C@H](NC(=O)[C@H](Cc3c[nH]c4ccccc34)NC(=O)[C@@H]3C[C@@H](O)CN3C(=O)[C@H](CC(C)C)NC2=O)C(=O)N[C@@H](Cc2cn(CC(=O)O)c3ccccc23)C(=O)N1C` [Example 1004], 6.3 nM.

(Values after patent US20230365627A1, “MACROCYCLIC PEPTIDE BORONATE IMMUNOMODULATORS” (Bristol-Myers Squibb Company, priority 2020, published 2023).)
